Consider eight molecules from patent US7709235B2, “5-Substituted hydantoin racemase, DNA encoding the same, recombinant DNA, transformed cell, and process for production of optically active N-carbamylamino acid or optically active amino acid” (priority 2005, dated 2010).

The subject of data set [1] is hydantoin racemase enzyme solution of transformant. Briefly: Substrate specificity of hydantoin racemase of transformant. Type of data set: biochemical, Escherichia coli HB101 (pBHR001). As to conditions: activity for L-5-(2-methylthioethyl)hydantoin taken at 100, method of Example 2. The protocol:
(§1) Substrate specificity of purified hydantoin racemase was examined. First, 0.1 ml of purified hydantoin racemase obtained in Example 1 was added to each 0.9 ml of 50 mM Tris-HCl buffers (pH 7.5) containing 50 mM L-5-(2-methylthioethyl)hydantoin, 50 mM D-5-(2-methylthioethyl)hydantoin, 13 mM D-5-(1-mercapto-1-methyl)ethylhydantoin, 8 mM L-5-isobutylhydantoin, 50 mM L-5-(1-methylpropyl)hydantoin, and 4 mM L-5-benzylhydantoin, respectively. The mixtures were allowed to react at 30° C., and the reaction was terminated by adding 0.1 ml of 1N HCl. Except for the reaction using the substrate D-5-(1-mercapto-1-methyl)ethylhydantoin, the reaction was analyzed by diluting the supernatant of a centrifuged reaction mixture two times with ion exchange water, and by quantifying the D-5-substituted hydantoin compound generated in the reaction mixture, using HPLC. HPLC analysis was performed under the conditions given above. For the reaction using the substrate D-5-(1-mercapto-1-methyl)ethylhydantoin, the reaction mixture was analyzed by quantifying a sample that had been obtained by extracting the reaction mixture with 1 ml of ethyl acetate. Analysis was performed by performing HPLC under the following conditions. Column: CHIRALPAK AD-H (Daicel), eluent: hexane/isopropanol=9/1, flow rate: 1 ml/min., column temperature: 25° C., detection: 210 nm.
Using the hydantoin racemase enzyme solution of transformant obtained in Example 7, substrate specificity was examined according to the method of Example 2. The result is shown in Table 4 as relative activities, taking the activity for L-5-(2-methylthioethyl)hydantoin at 100.

In data set [2] the test system is hydantoin racemase produced by Bacillus sp. KNK519HR. Briefly: Substrate specificity with crude enzyme solution of Bacillus sp. KNK519HR (HPLC). As to conditions: activity for L-5-isobutylhydantoin taken at 100, 30° C., pH 7.5, HPLC of D-hydantoin. It is filed as biochemical. The protocol:
Substrate specificity of hydantoin racemase produced by Bacillus sp. KNK519HR was examined using a crude enzyme solution of Bacillus sp. KNK519HR that was produced according to the procedure described in Example 1. First, 0.1 ml of crude enzyme solution was added to each 0.9 ml of 50 mM Tris-HCl buffers (pH 7.5) containing 4 mM L-5-benzylhydantoin, 50 mM L-5-(2-methylthioethyl)hydantoin, and 8 mM L-5-isobutylhydantoin, respectively. The mixtures were allowed to react at 30° C., and the reaction was terminated by adding 0.1 ml of 1N HCl. The supernatant of a centrifuged reaction mixture was diluted two times with ion exchange water, and the D-5-substituted hydantoin compound generated in the reaction mixture was quantified by HPLC. HPLC analysis was performed under the following conditions. Column: Chirobiotic T (4.6 mm×250 mm, ASTEC Inc., eluent: 0.01% (v/v) Triethylamine acetate (pH 6.8)/methanol=9/1, flow rate: 0.7 ml/min., column temperature: 35° C., detection: 210 nm. Further, 0.1 ml of crude enzyme solution of Bacillus sp. KNK519HR was added to 0.9 ml of 50 mM Tris-HCl buffer (pH 7.5) containing 50 mM 5-methylhydantoin, together with recombinant Escherichia coli having D-form selective hydantoinase activity for 1 ml of culture solution (described later), and recombinant Escherichia coli having D-form selective N-carbamylamino acid amidohydrolase activity for 1 ml of culture solution. The mixture was allowed to react at 30° C., and the reaction was terminated by adding 0.1 ml of 1N HCl. After neutralization with 1N NaOH, the reaction mixture was centrifuged and the D-alanine generated in the supernatant was quantified by an enzyme method using D-amino acid oxydase and peroxydase.

For data set [3], the target named is T1, hydantoin racemase of Pseudomonas sp. (Pseudomonas sp., UniProt Q00924).
T1 sequence (Q00924 1-249): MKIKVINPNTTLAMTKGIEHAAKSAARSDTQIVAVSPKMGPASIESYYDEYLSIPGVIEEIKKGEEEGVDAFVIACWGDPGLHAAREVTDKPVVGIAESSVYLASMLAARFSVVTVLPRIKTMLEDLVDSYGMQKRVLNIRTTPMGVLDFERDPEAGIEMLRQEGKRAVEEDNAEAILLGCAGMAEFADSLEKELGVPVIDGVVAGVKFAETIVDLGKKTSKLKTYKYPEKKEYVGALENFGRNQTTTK
The note with it: Pseudomonas sp. enzyme; proportion of D-form at reaction time 10 minutes; L-5-(2-methylthioethyl)hydantoin = 100; cited from earlier work.

Data set [4] concerns purified hydantoin racemase. The data set is described as follows: Substrate specificity of purified hydantoin racemase. It is filed as biochemical, Bacillus sp. KNK519HR. As to conditions: purified enzyme; activity for L-5-(2-methylthioethyl)hydantoin taken at 100; 30° C., Tris-HCl pH 7.5; substrate 4-50 mM. On the procedure: as §1
Data set [5] relates to purified hydantoin racemase. Briefly: Measurement of Km value (Lineweaver-Burk plot). Type of data set: biochemical, Bacillus sp. KNK519HR. As to conditions: FIG. 2. The protocol:
A Km value for L-5-(2-methylthioethyl)hydantoin was determined from the Lineweaver-Burk plot.

For data set [6], the system named is hydantoin racemase produced by Bacillus sp. KNK519HR. Briefly: Substrate specificity with crude enzyme solution coupled with D-hydantoinase and D-N-carbamylamino acid amidohydrolase, D-alanine quantified by enzyme method. The note with it: L-5-isobutylhydantoin = 100, 50 mM substrate. It is filed as biochemical. The protocol: Substrate specificity of hydantoin racemase produced by Bacillus sp. KNK519HR was examined using a crude enzyme solution of Bacillus sp. KNK519HR that was produced according to the procedure described in Example 1. First, 0.1 ml of crude enzyme solution was added to each 0.9 ml of 50 mM Tris-HCl buffers (pH 7.5) containing 4 mM L-5-benzylhydantoin, 50 mM L-5-(2-methylthioethyl)hydantoin, and 8 mM L-5-isobutylhydantoin, respectively. The mixtures were allowed to react at 30° C., and the reaction was terminated by adding 0.1 ml of 1N HCl. The supernatant of a centrifuged reaction mixture was diluted two times with ion exchange water, and the D-5-substituted hydantoin compound generated in the reaction mixture was quantified by HPLC. HPLC analysis was performed under the following conditions. […] After neutralization with 1N NaOH, the reaction mixture was centrifuged and the D-alanine generated in the supernatant was quantified by an enzyme method using D-amino acid oxydase and peroxydase.
Quantification of D-alanine by the enzyme method was performed as follows. […] The mixture was allowed to react for 90 minutes, and an absorbance at 555 nm was measured to quantity the D-alanine generated in the reaction mixture. […]

A short description of data set [7]: Effective temperature range, optimum temperature, effective pH range and optimum pH of the enzyme. Type of data set: biochemical, Bacillus sp. KNK519HR. The note with it: FIG. 3, activity at 40° C. taken at 100%. The protocol: Assessment was made as to effective temperature range and optimum temperature. FIG. 3 represents relative activities at different temperatures, taking the activity at 40° C. at 100%. The optimum temperature of the enzyme was 40° C., and the enzyme desirably exerted its action at all temperatures in the evaluated temperature range of 25° C. to 65° C.
Assessment was made as to effective pH range and optimum pH. […] The enzyme exerted its action in a pH range of 6 to 10. The optimum pH range was 8 to 9.

Data set [8] can be described thus: Hydantoin racemase activity of purified enzyme, HPLC quantification of D-5-(2-methylthioethyl)hydantoin generated. The note with it: 30° C., 30 minutes, 50 mM Tris-HCl buffer (pH 7.5), 50 mM L-5-(2-methylthioethyl)hydantoin; 1 unit = 1 μmol D-form per minute. Type of data set: biochemical, Bacillus sp. KNK519HR. The protocol:
In an embodiment of the present invention, the hydantoin racemase activity of the polypeptide can be measured by, for example, quantification of D-5-(2-methylthioethyl)hydantoin generated at 30° C. in 30 minutes in 50 mM Tris (tris(hydroxymethyl)aminomethane)-HCl buffer (pH 7.5) containing 50 mM L-5-(2-methylthioethyl)hydantoin, using high-performance liquid chromatography (HPLC) or the like.
The activity of the purified hydantoin racemase was determined by HPLC, by quantifying the amount of increase of D-5-(2-methylthioethyl)hydantoin generated at 30° C. in 30 minutes in a 50 mM Tris-HCl buffer (pH 7.5) containing 50 mM L-5-(2-methylthioethyl)hydantoin. HPLC analysis was performed under the following conditions. Column: Chirobiotic T (4.6 mm×250 mm, ASTEC Inc.), eluent: 0.01% (v/v) triethylamine acetate (pH 6.8)/methanol=9/1, flow rate: 0.7 ml/min., column temperature: 35° C., detection: 210 nm. Here, 1 unit was defined as the amount of enzyme that generated 1 μmol D-5-(2-methylthioethyl)hydantoin in one minute. Quantification of protein was performed according to the Lowry method, using BSA as a standard.

The nature of data set [9]: Temperature stability and pH stability of the enzyme (remaining activity). It is filed as physicochemical, Bacillus sp. KNK519HR. As to conditions: FIG. 5. The protocol: Temperature stability of enzyme was examined as the remaining activity after 30 minutes of processing at different temperatures.
pH stability was examined. FIG. 6 represents remaining activity of enzyme after processing the enzyme at 30° C. for 16 hours at different pH, taking the activity of untreated enzyme at 100%. The enzyme was relatively stable in a pH range of 4.5 to 8.0.

Data set [10] is described as follows: Substrate inhibition of hydantoin racemase (crude enzyme solution). Type of data set: biochemical, Bacillus sp. KNK519HR. The note with it: L-5-(2-methylthioethyl)hydantoin as substrate between 50 mM and 80 mM; initial rate, 30° C., FIG. 7. The protocol:
Substrate inhibition of the hydantoin racemase produced by Bacillus sp. KNK519HR was examined using the crude enzyme solution prepared in Example 1. In a reaction mixture of 0.1-ml crude enzyme solution and each 0.9-ml of 50 mM Tris-HCl buffers (pH 7.5) respectively containing 5, 10, 50, and 80 mM L-5-(2-methylthioethyl)hydantoin, respectively, the reaction was performed at 30° C. for 10, 20, 30, and 40 minutes. After the reaction, hydantoin racemase activity was abolished by adding 0.1 ml of 1N HCl. The supernatant of the centrifuged reaction mixture was diluted two times with ion exchange water, and the D-5-(2-methylthioethyl)hydantoin generated in the reaction mixture was quantified by HPLC. HPLC analysis was performed under the same conditions used in Example 3. An initial reaction rate was determined at each initial substrate concentration. FIG. 7 represents a relationship between relative activity and initial substrate concentration.

Take `CSCC[C@@H]1NC(=O)NC1=O` [L-5-(2-methylthioethyl)hydantoin]: the “Relative Activity” value in [1] is 100; in data set [2], 61; in data set [3], 100; in data set [4] it was 100. For the same molecule, the Km in [5] was found to be 304 µM.
On to `CC(C)(S)C1NC(=O)NC1=O` [D-5-(1-mercapto-1-methyl)ethylhydantoin], for which the “Relative Activity” value in data set [1] was determined as 9; in data set [4] it was 25.
For the molecule `O=C1NC(=O)[C@H](Cc2ccccc2)N1` [L-5-benzylhydantoin], the “Relative Activity” value in [1] turned out to be 35; in [2] it was 35; in data set [4], 52.
For `CC(C)C[C@@H]1NC(=O)NC1=O` [L-5-isobutylhydantoin], the “Relative Activity” value in [1] is given as 174; in data set [2], 100; in [4], 173.
As to `C[C@@H]1NC(=O)NC1=O` [L-5-methylhydantoin], in [6], the “Relative Activity” value is on record as 20.
For `CSCC[C@H]1NC(=O)NC1=O` [D-5-(2-methylthioethyl)hydantoin], the results for the “Relative Activity” value in data set [1] and in data set [4] were 52 and 49, respectively.
`CCC(C)[C@@H]1NC(=O)NC1=O` (stereo partly drawn) [L-5-(1-methylpropyl)hydantoin]: the “Relative Activity” value in data set [1] is 2; in [3], 132; in [4], 2.

B1: purified hydantoin racemase: hydantoin racemase from Bacillus sp. KNK519HR, polypeptide with the amino acid sequence of SEQ ID NO: 1 (protein, listed as Bacillus sp.)
chain: MKIKVINPNTTLAMTKGIEHAAKSAARSDTQIVAVSPKMGPASIESYYDEYLSIPGVIEEIKKGEEEGVDAFVIACWGDPGLHAAREVTDKPVVGIAESSVYLASMLAARFSVVTVLPRIKTMLEDLVDSYGMQKRVVNIRTTPMGVLDFERDPEAGIEMLRQEGKRAVEEDNAEAILLGCAGMAEFADSLEKELGVPVIDGVVAGVKFAEAIVDLGKKTSKLKTYKYPEKKEYVGALENFGLNQTTTK
With B1, the optimum temperature in data set [7] is 40 °C. For the same molecule, the specific activity in data set [8] amounted to 24.2 unit/mg protein. Besides, the “remaining activity (temperature stability)” value in data set [9] (after 30 minutes of processing at 30° C.) is 80%; in [9] (after 30 minutes of processing at 70° C.) it was “almost all activity was lost”. Further, the substrate inhibition entry in data set [10] is “had substrate inhibition”.
